Patent US20230372433A1, “NANOPARTICLE FOR ANTI-CANCER PEPTIDES AND USES THEREOF” (KING'S COLLEGE LONDON, priority 2020, published 2023)

Experiments:
[1] = system: HMLER-shEcad (human breast cancer stem cell); assay: MTT cytotoxicity assay, HMLER-shEcad; format: cell-based; conditions: 72 hr, MTT; read-out: IC50 HMLER-shEcad
[2] = system: U2OS (human bone osteosarcoma); assay: MTT cytotoxicity assay, U2OS; format: cell-based; conditions: 72 hr
[3] = system: MCF-10A (human breast epithelial cell); assay: cells; conditions: read-out: IC50 MCF-10A; 72 hr, MTT
[4] = system: HEK293T (human embryonic kidney cell); assay: MTT cytotoxicity assay, HEK293T; format: cell-based; conditions: 72 hr, MTT; read-out: IC50 HEK293T
[5] = system: HMLER (human breast cancer bulk cell); assay: MTT cytotoxicity assay, HMLER; format: cell-based; conditions: 72 hr, MTT; read-out: IC50 HMLER
[6] = Tryptophan fluorescent binding assay, 3POPC/1POPG vesicles; conditions: 50 μM peptide, PBS pH 7.4
Outline: (§1)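 Tryptophan fluorescence was measured with peptide fixed at 50 μM and POPC or 3POPC/1POPG LUVs (100 nm extruded) titrated 0–5000 μM in PBS pH 7.4, read after 60 min. Excitation was 280 nm and emission 300–450 nm. The value is the lipid concentration giving 50% peptide binding, expressed as lipid per peptide.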

[7] = ANTS/DPX liposome leakage assay, POPC vesicles; format: biochemical; conditions: 0.5 mM vesicles
Outline: (§2)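 0.5 mM extruded 100 nm LUVs loaded with 5 mM ANTS/12.5 mM DPX were incubated 3 h with peptide at 0–20 μM in PBS pH 7.4 or HCl-adjusted PBS pH 4.8. Fluorescence read at ex 350/em 510 nm; 10% Triton set maximum leakage; values expressed as lipid per peptide.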

[8] = Tryptophan fluorescent binding assay, POPC vesicles; conditions: 50 μM peptide, PBS pH 7.4
Outline: as §1

[9] = ANTS/DPX liposome leakage assay, 3POPC/1POPG vesicles; format: biochemical; conditions: 0.5 mM vesicles
Outline: as §2

Sequence	IC50 [1]	IC50 [2]	IC50 [3]	IC50 [4]	IC50 [5]	Lipid Concentration-induced 50% Peptide Binding (L/P) 3POPC/1POPG Vesicle [6]	Peptide Concentration-induced 50% ANTS/DPX leakage at pH 4.8 (L/P) POPC Vesicle [7]	Peptide Concentration-induced 50% ANTS/DPX leakage at pH 7.4 (L/P) POPC Vesicle [7]	Lipid Concentration-induced 50% Peptide Binding (L/P) POPC Vesicle [8]	Peptide Concentration-induced 50% ANTS/DPX leakage at pH 4.8 (L/P) 3POPC/1POPG Vesicle [9]	Peptide Concentration-induced 50% ANTS/DPX leakage at pH 7.4 (L/P) 3POPC/1POPG Vesicle [9]
GLLKLLELLLKAAG [KEK]	1.35 ± 0.07 µM	8.15 ± 0.49 µM	1.55 ± 0.07 µM	3.2 ± 0.14 µM	1.6 ± 0.14 µM	0.50 L/P	110 L/P	1173 L/P	0.47 L/P	126 L/P	438 L/P
GLLKLLHLLLEAAG [KHE]	2.92 ± 0.17 µM	53 ± 2.83 µM	20.9 ± 5.87 µM	26 ± 2.83 µM	3.7 ± 0.14 µM	0.71 L/P	183 L/P	981 L/P	0.88 L/P	156 L/P	188 L/P
GLLKLLHLLLHAAG [KHH]	4.45 ± 0.49 µM	39.8 ± 5.3 µM	10.3 ± 0.49 µM	7.75 ± 0.78 µM	5.2 ± 0.71 µM	0.94 L/P	227 L/P	1153 L/P	3.50 L/P	48 L/P	329 L/P
GLLKLLHLLLKAAG [KHK]	1.4 ± 0.14 µM	12.9 ± 1.24 µM	1.81 ± 0.05 µM	3.55 ± 0.78 µM	2.59 ± 0.92 µM	0.38 L/P	140 L/P	1153 L/P	0.17 L/P	53 L/P	193 L/P
GLLKLLKLLLEAAG [KKE]	1.7 µM	12.8 ± 1.2 µM	2.9 ± 0.57 µM	4.4 ± 0.14 µM	2.05 ± 0.64 µM	0.44 L/P	143 L/P	1133 L/P	0.48 L/P	131 L/P	346 L/P
GLLKLLKLLLHAAG [KKH]	2.2 ± 0.42 µM	13.3 ± 0.99 µM	1.75 ± 0.35 µM	4 ± 0.28 µM	2.4 ± 0.85 µM	0.48 L/P	164 L/P	2119 L/P	0.83 L/P	49 L/P	227 L/P
GLLKLLKLLLKAAG [KKK]	1.35 ± 0.4 µM	9.65 ± 1.2 µM	1.37 ± 0.24 µM	3.7 ± 0.14 µM	1.57 ± 0.24 µM	1.70 L/P	156 L/P	1369 L/P	1.25 L/P	81 L/P	115 L/P
